Patent US20170290774A1, “NEUROKININ-1 RECEPTOR ANTAGONIST COMPOSITION FOR TREATMENT OF DISEASES AND CONDITIONS OF THE RESPIRATORY TRACT” (PLUS VITECH, S.L., priority 2014, published 2017)

Assays:
Assay type in all cases: physicochemical
Details in all cases: 25° C.
[1] = Saturation concentration in different oils (soy, sunflower, rapeseed)
Protocol: (§1) Each of said mixtures was continuously and gently stirred for 10 minutes at ambient temperature (25° C.) and then maintained at rest for 60 minutes. The saturation concentration was considered to be that which was immediately less than a concentration where deposition was observed, but in which no deposition of the active ingredient was observed.

[2] = Saturation concentration in olive oil:ethanol (9:1)
Protocol: as §1

[3] = Saturation concentration of NK1 receptor antagonists in olive oil
Protocol: as §1, with “lower in the aforementioned series” for “less”

Row | Saturation concentration ([1]; Rapeseed oil) [nM] | Saturation concentration ([1]; Soy oil) [nM] | Saturation concentration ([1]; Sunflower oil) [nM] | Saturation concentration [2] [nM] | Saturation concentration [3] [nM] | Structure (SMILES)
1 | 70 | 60 | 60 | 65 | 40 | CC(=O)N1CCN([C@H]2CCN(C(=O)N(C)[C@H](C)c3cc(C(F)(F)F)cc(C(F)(F)F)c3)[C@@H](c3ccc(F)cc3C)C2)CC1 [Casopitant]
2 | 90 | 90 | 80 | 100 | 80 | CC(=O)N[C@@H](Cc1c[nH]c2ccccc12)C(=O)OCc1cc(C(F)(F)F)cc(C(F)(F)F)c1 [L-732,138]
